Test results published in US9695155B2, “Herbicidal substituted pyrimidinyloxy benzene compounds” (E. I. DU PONT DE NEMOURS AND COMPANY, priority 2013, dated 2017).

How the values were obtained:
barnyardgrass [1] = assay: Test C preemergence; assay type: in vivo, Echinochloa crus-galli; details: for Barnyardgrass plant response rating: preemergence; for Plant response rating, Barnyardgrass: Preemergence, 31 g ai/ha, scale 0 to 100, 0 no effect, 100 complete control
Procedure, shortened: (§1)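 Visual injury score versus untreated controls, 0 = no effect, 100 = complete control, taken 13 to 15 days after treatment in the greenhouse. Pre-emergence pots held loam/sand; post-emergence plants grew in sphagnum peat/vermiculite mix and were sprayed at the 1- to 4-leaf stage.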

corn = assay: Test C postemergence; assay type: in vivo, Zea mays; details: for Plant response rating (0 to 100), Corn: 16 g ai/ha, 0 is no effect, 100 is complete control; for Corn plant response rating: 31 g ai/ha, 13 to 15 days; for Corn plant response rating / Plant response rating, Corn: scale 0 to 100 (0 no effect, 100 complete control)
Procedure, shortened: as §1

pigweed [2] = assay: Test C preemergence; assay type: in vivo, Amaranthus retroflexus; details: preemergence
Procedure, shortened: as §1

giant foxtail [3] = assay: Test C preemergence; assay type: in vivo, Setaria faberii; details: for Foxtail, Giant plant response rating: preemergence; for Plant response rating, Foxtail, Giant: Preemergence, 31 g ai/ha, scale 0 to 100, 0 no effect, 100 complete control
Procedure, shortened: as §1

giant foxtail [4] = assay: Test A preemergence; assay type: in vivo, Setaria faberii
Procedure, shortened: (§2)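 Scoring: eye-based comparison with untreated controls, 0 for no effect through 100 for complete control, at about day 10. Treatments: directed soil spray preemergence; foliar spray postemergence on 2–10 cm plants at the one- to two-leaf stage. Medium: loam soil with sand.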

yellow nutsedge [5] = assay: Test C preemergence; assay type: in vivo, Cyperus esculentus; details: preemergence
Procedure, shortened: as §1

kochia = assay: Test C postemergence; assay type: in vivo, Kochia scoparia; details: for Plant response rating (0 to 100), Kochia: 16 g ai/ha, 0 is no effect, 100 is complete control; for Kochia plant response rating: 31 g ai/ha, 13 to 15 days; for Kochia plant response rating / Plant response rating, Kochia: scale 0 to 100 (0 no effect, 100 complete control)
Procedure, shortened: as §1

yellow nutsedge [6] = assay: Test C postemergence; assay type: in vivo, Cyperus esculentus; details: for Plant response rating (0 to 100), Nutsedge, Yellow: 16 g ai/ha, 0 is no effect, 100 is complete control; for Nutsedge, Yellow plant response rating: 31 g ai/ha, 13 to 15 days; for Nutsedge, Yellow plant response rating / Plant response rating, Nutsedge, Yellow: scale 0 to 100 (0 no effect, 100 complete control)
Procedure, shortened: as §1

galium = assay: Test C postemergence; assay type: in vivo, Galium aparine; details: for Plant response rating (0 to 100), Galium: 16 g ai/ha, 0 is no effect, 100 is complete control; for Galium plant response rating: 31 g ai/ha, 13 to 15 days; for Galium plant response rating / Plant response rating, Galium: scale 0 to 100 (0 no effect, 100 complete control)
Procedure, shortened: as §1

wheat, winter = assay: Test C postemergence; assay type: in vivo, Triticum aestivum; details: for Plant response rating (0 to 100), Wheat: 16 g ai/ha, 0 is no effect, 100 is complete control; for Wheat plant response rating: 31 g ai/ha, 13 to 15 days; for Wheat plant response rating / Plant response rating, Wheat: scale 0 to 100 (0 no effect, 100 complete control)
Procedure, shortened: as §1

Italian ryegrass = assay: Test C postemergence; assay type: in vivo, Lolium multiflorum; details: for Plant response rating (0 to 100), Ryegrass, Italian: 16 g ai/ha, 0 is no effect, 100 is complete control; for Ryegrass, Italian plant response rating: 31 g ai/ha, 13 to 15 days; for Ryegrass, Italian plant response rating / Plant response rating, Ryegrass, Italian: scale 0 to 100 (0 no effect, 100 complete control)
Procedure, shortened: as §1

rice = assay: Test B flooded paddy test; assay type: in vivo, Oryza sativa; details: Flood, 250 g ai/ha; 0 to 100 scale where 0 is no effect and 100 is complete control
Procedure, shortened: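 2-leaf stage plants; pots flooded to 3 cm, compound added to paddy water, depth maintained. Greenhouse 13–15 d. Visual rating vs untreated controls, 0 (no effect) to 100 (complete control); dash = no result.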

barnyardgrass [7] = assay: Test C postemergence; assay type: in vivo, Echinochloa crus-galli; details: for Plant response rating (0 to 100), Barnyardgrass: 16 g ai/ha, 0 is no effect, 100 is complete control; for Barnyardgrass plant response rating: 31 g ai/ha, 13 to 15 days; for Barnyardgrass plant response rating / Plant response rating, Barnyardgrass: scale 0 to 100 (0 no effect, 100 complete control)
Procedure, shortened: as §1

pigweed [8] = assay: Test A preemergence; assay type: in vivo, Amaranthus retroflexus
Procedure, shortened: as §2

[9] = 16 g ai/ha, scale 0 to 100 (0 no effect, 100 complete control)
[10] = 62 g ai/ha, scale 0 (no effect) to 100 (complete control)
[11] = 125 g ai/ha, scale 0 (no effect) to 100 (complete control)
[12] = 125 g ai/ha, postemergence, visual rating
[13] = 125 g ai/ha, 0 to 100 scale where 0 is no effect and 100 is complete control
[14] = 500 g ai/ha, 0 to 100 scale where 0 is no effect and 100 is complete control
[15] = 1000 g ai/ha, 0 to 100 scale, 0 no effect, 100 complete control, approx. 10 days

CCCOc1cnn(-c2c(C#N)cccc2Oc2ncc(Cl)cn2)c1 [Compound 150]
Barnyardgrass plant response rating (barnyardgrass [1]; [9]): 5
Barnyardgrass plant response rating (barnyardgrass [1]; [10]): 65
Barnyardgrass plant response rating (barnyardgrass [1]; [11]): 80
Plant response rating, Barnyardgrass (barnyardgrass [1]): 20
Plant response rating (0 to 100), Corn (corn; postemergence): 5
Corn plant response rating (corn; postemergence, visual rating): 10
Plant response rating, Corn (corn; [12]): 10
Plant response rating, Corn (corn; Postemergence, 62 g ai/ha): 10
Pigweed plant response rating (pigweed [2]; [9]): 55
Pigweed plant response rating (pigweed [2]; [10]): 100
Pigweed plant response rating (pigweed [2]; [11]): 100
Foxtail, Giant plant response rating (giant foxtail [3]; [9]): 5
Foxtail, Giant plant response rating (giant foxtail [3]; [10]): 100
Foxtail, Giant plant response rating (giant foxtail [3]; [11]): 100
Plant response rating, Foxtail, Giant (giant foxtail [3]): 75
Plant response rating, Foxtail, Giant (giant foxtail [4]; [13]): 100
Foxtail, Giant plant response rating (giant foxtail [4]; [14]): 100
Nutsedge, Yellow plant response rating (yellow nutsedge [5]; [9]): 0
Nutsedge, Yellow plant response rating (yellow nutsedge [5]; [10]): 25
Nutsedge, Yellow plant response rating (yellow nutsedge [5]; [11]): 40
Plant response rating (0 to 100), Kochia (kochia; postemergence): 50
Kochia plant response rating (kochia; postemergence, visual rating): 55
Plant response rating, Kochia (kochia; [12]): 85
Plant response rating, Kochia (kochia; Postemergence, 62 g ai/ha): 55
Plant response rating (0 to 100), Nutsedge, Yellow (yellow nutsedge [6]; postemergence): 0
Nutsedge, Yellow plant response rating (yellow nutsedge [6]; postemergence, visual rating): 0
Plant response rating, Nutsedge, Yellow (yellow nutsedge [6]; [12]): 5
Plant response rating, Nutsedge, Yellow (yellow nutsedge [6]; Postemergence, 62 g ai/ha): 15
Plant response rating (0 to 100), Galium (galium; postemergence): 60
Galium plant response rating (galium; postemergence, visual rating): 65
Plant response rating, Galium (galium; [12]): 80
Plant response rating, Galium (galium; Postemergence, 62 g ai/ha): 75
Plant response rating (0 to 100), Wheat (wheat, winter; postemergence): 5
Wheat plant response rating (wheat, winter; postemergence, visual rating): 5
Plant response rating, Wheat (wheat, winter; [12]): 25
Plant response rating, Wheat (wheat, winter; Postemergence, 62 g ai/ha): 5
Plant response rating (0 to 100), Ryegrass, Italian (Italian ryegrass; postemergence): 0
Ryegrass, Italian plant response rating (Italian ryegrass; postemergence, visual rating): 0
Plant response rating, Ryegrass, Italian (Italian ryegrass; [12]): 5
Plant response rating, Ryegrass, Italian (Italian ryegrass; Postemergence, 62 g ai/ha): 5
Plant response rating, Rice (rice): 0
Plant response rating (0 to 100), Barnyardgrass (barnyardgrass [7]; postemergence): 5
Barnyardgrass plant response rating (barnyardgrass [7]; postemergence, visual rating): 5
Plant response rating, Barnyardgrass (barnyardgrass [7]; [12]): 5
Plant response rating, Barnyardgrass (barnyardgrass [7]; Postemergence, 62 g ai/ha): 5
Plant response rating, Pigweed (pigweed [8]; [13]): 100
Pigweed plant response rating (pigweed [8]; [14]): 100

FCc1cn(-c2c(F)cccc2Oc2ncc(Cl)cn2)nn1 [Compound 154]
Barnyardgrass plant response rating (barnyardgrass [1]; [9]): 5
Barnyardgrass plant response rating (barnyardgrass [1]; [10]): 70
Barnyardgrass plant response rating (barnyardgrass [1]; [11]): 100
Plant response rating, Barnyardgrass (barnyardgrass [1]): 25
Plant response rating (0 to 100), Corn (corn; postemergence): 0
Corn plant response rating (corn; postemergence, visual rating): 0
Plant response rating, Corn (corn; [12]): 0
Plant response rating, Corn (corn; Postemergence, 62 g ai/ha): 0
Pigweed plant response rating (pigweed [2]; [9]): 85
Pigweed plant response rating (pigweed [2]; [10]): 100
Pigweed plant response rating (pigweed [2]; [11]): 100
Foxtail, Giant plant response rating (giant foxtail [3]; [9]): 5
Foxtail, Giant plant response rating (giant foxtail [3]; [10]): 85
Foxtail, Giant plant response rating (giant foxtail [3]; [11]): 100
Plant response rating, Foxtail, Giant (giant foxtail [3]): 70
Foxtail, Giant plant response rating (giant foxtail [4]; [15]): 100
Nutsedge, Yellow plant response rating (yellow nutsedge [5]; [9]): 0
Nutsedge, Yellow plant response rating (yellow nutsedge [5]; [10]): 5
Nutsedge, Yellow plant response rating (yellow nutsedge [5]; [11]): 65
Plant response rating (0 to 100), Kochia (kochia; postemergence): 50
Kochia plant response rating (kochia; postemergence, visual rating): 50
Plant response rating, Kochia (kochia; [12]): 80
Plant response rating, Kochia (kochia; Postemergence, 62 g ai/ha): 80
Plant response rating (0 to 100), Nutsedge, Yellow (yellow nutsedge [6]; postemergence): 5
Nutsedge, Yellow plant response rating (yellow nutsedge [6]; postemergence, visual rating): 10
Plant response rating, Nutsedge, Yellow (yellow nutsedge [6]; [12]): 10
Plant response rating, Nutsedge, Yellow (yellow nutsedge [6]; Postemergence, 62 g ai/ha): 10
Plant response rating (0 to 100), Galium (galium; postemergence): 60
Galium plant response rating (galium; postemergence, visual rating): 65
Plant response rating, Galium (galium; [12]): 85
Plant response rating, Galium (galium; Postemergence, 62 g ai/ha): 80
Plant response rating (0 to 100), Wheat (wheat, winter; postemergence): 0
Wheat plant response rating (wheat, winter; postemergence, visual rating): 0
Plant response rating, Wheat (wheat, winter; [12]): 5
Plant response rating, Wheat (wheat, winter; Postemergence, 62 g ai/ha): 0
Plant response rating (0 to 100), Ryegrass, Italian (Italian ryegrass; postemergence): 0
Ryegrass, Italian plant response rating (Italian ryegrass; postemergence, visual rating): 0
Plant response rating, Ryegrass, Italian (Italian ryegrass; [12]): 0
Plant response rating, Ryegrass, Italian (Italian ryegrass; Postemergence, 62 g ai/ha): 0
Plant response rating, Rice (rice): 10
Plant response rating (0 to 100), Barnyardgrass (barnyardgrass [7]; postemergence): 5
Barnyardgrass plant response rating (barnyardgrass [7]; postemergence, visual rating): 5
Plant response rating, Barnyardgrass (barnyardgrass [7]; [12]): 20
Plant response rating, Barnyardgrass (barnyardgrass [7]; Postemergence, 62 g ai/ha): 10
Pigweed plant response rating (pigweed [8]; [15]): 100
